Test results as given in patent publication US11253566B2, “Composition for ameliorating, or treating depression and anxiety disorder comprising Fraxinus rhynchophylla extract as effective ingredient” (priority 2017, dated 2022).

Legend:
[1] = system: C57BL/6 mouse with induced depression and anxiety disorder; test: Forced swim test (FST); assay type: in vivo; conditions: 150 mg/kg doxepin for 14 days, test on Day 15, vs control group
Description: (§1) Fraxinus rhynchophylla extract was dissolved in physiological saline to have a concentration of 100 mg/kg for each, and then aliquoted. One hour before applying the stress for 14 days, the sample was administered via an oral route.
(§2) A 7-week old male C57BL/6 mouse was acclimated for 1 week, and then exposed to a stress everyday between 10:00 to 14:00 o'clock. Specifically, 1 hour after the oral administration of a sample, an electric shock with strength of 0.5 mA was applied to the foot sole of the mouse for 1 sec with an interval of 10 seconds, for 2 minutes in total, by using a shuttle box (JD-SI-10, JEUNG DO BIO & PLANT CO, LTD, Seoul, S. Korea). After applying the electric shock, the mouse was put to a hemicylindrical restraining device (JD-R 05A, JEUNG DO BIO & PLANT CO, LTD, Seoul, S. Korea) made of 30 mm-thick acryl, one animal in each device, and then restrained in the immobile state for 2 hours. […]
Forced swim test is a test to determine despair among the symptoms of depression, and the immobility of a mouse was checked using a cylinder having a depth which prevents the animal from touching its paws or tail to the floor of the cylinder. […] Then, the immobility time during 4 minutes, i.e., excluding initial 2 minutes as adaptation period from the total 6 minutes, was measured.

cortisol = test: Cortisol level in blood serum (ELISA); assay type: in vivo, mouse; conditions: 150 mg/kg doxepin for 14 days, blood on Day 17, vs control group
Description: as §1
(§3) A 7-week old male C57BL/6 mouse was acclimated for 1 week, and then exposed to a stress everyday between 10:00 to 14:00 o'clock. Specifically, 1 hour after the oral administration of a sample, an electric shock with strength of 0.5 mA was applied to the foot sole of the mouse for 1 sec with an interval of 10 seconds, for 2 minutes in total, by using a shuttle box (JD-SI-10, JEUNG DO BIO & PLANT CO, LTD, Seoul, S. Korea). After applying the electric shock, the mouse was put to a hemicylindrical restraining device (JD-R 05A, JEUNG DO BIO & PLANT CO, LTD, Seoul, S. Korea) made of 30 mm-thick acryl, one animal in each device, and then restrained in the immobile state for 2 hours.
(§4) In addition, for the control group, the 12-hour day and night cycle was maintained, but light illumination was applied to the test group for 24 hours to disrupt the regular living pattern, and thus a sleep-interfering environment was created (FIG. 5).
The cortisol level in blood serum separated from each test animal was measured. […] Absorbance at 405 nm was then measured.

serotonin = test: Serotonin level in blood serum (ELISA); assay type: in vivo, mouse; conditions: 150 mg/kg doxepin for 14 days, blood on Day 17, vs control group
Description: as §1, §3, §4
The serotonin level in blood serum separated from each test animal was measured. […] Upon the completion of the reaction, absorbance at a wavelength of 405 nm was measured by using a microplate reader.

pCREB = test: Expression ratio of pCREB protein in hippocampal tissues (Western blot); assay type: in vivo, mouse; conditions: 150 mg/kg doxepin for 14 days, tissues on Day 17, vs control group
[2] = Bodyweight change in mouse with induced depression and anxiety disorder; assay type: in vivo; conditions: 150 mg/kg doxepin, Day 7 or Day 14, vs control group
Description: as §1
(§5) A 7-week old male C57BL/6 mouse was acclimated for 1 week, and then exposed to a stress everyday between 10:00 to 14:00 o'clock. Specifically, 1 hour after the oral administration of a sample, an electric shock with strength of 0.5 mA was applied to the foot sole of the mouse for 1 sec with an interval of 10 seconds, for 2 minutes in total, by using a shuttle box (JD-SI-10, JEUNG DO BIO & PLANT CO, LTD, Seoul, S. Korea). […]
A change in body weight caused by administration of the ethanol extract of Fraxinus rhynchophylla of the present invention was determined in the animal model with induced depression and anxiety disorder. Specifically, the bodyweight of a mouse was measured, before the exposure to stress (Day 0), or on Day 7 or Day 14 after the exposure to stress for the normal group, the control group (i.e., group induced with depression and anxiety disorder), the test group (i.e., group administered with the ethanol extract of Fraxinus rhynchophylla of the present invention), and the positive control group (i.e., group administered with doxepin) (FIG. 6). […]

[3] = system: C57BL/6 mouse with induced depression and anxiety disorder; test: Open field test (OFT); assay type: in vivo; conditions: 150 mg/kg doxepin for 14 days, test on Day 15, vs control group
Description: as §1, §5
Open field test is to determine the degree of anxiety, which is one symptom of depression, by measuring the voluntary movement of a mouse after entering an unfamiliar field for the first time. At the center (15 cm×15 cm) of an open box with a dimension of 30 cm×30 cm×30 cm, which is made of white acryl, a C57BL/6 mouse which has been induced to have depression and anxiety disorder was placed, and then total travel distance and frequency of center entry for 10 minutes were measured. For the measurement, after recording using a video camera, the overall movement of the C57BL/6 mouse was analyzed by using Video tracking software (SMART 3.0, Panlab, Spain). […]

BDNF and mBDNF = test: Expression of BDNF and mBDNF in hippocampal tissues (Western blot); assay type: in vivo, mouse; conditions: 150 mg/kg doxepin for 14 days, tissues on Day 17, vs control group
Description: as §1, §2
Protein expression pattern in brain hippocampal tissues which have been collected from each test animal was determined by Western blot analysis. […] After obtaining the protein amount in each sample, the protein was quantified to 1 μg/μl, and then the expression amount of protein was measured by using Mini PROTEAN TGX Gels.

CN(C)CCC=C1c2ccccc2COc2ccccc21 [doxepin]
immobility time [1]: decreased in statistically significant sense
blood cortisol level (cortisol): decreased in statistically significant sense
serotonin hormone level in blood (serotonin): increased in statistically significant sense
expression ratio of pCREB protein (pCREB/CREB) in hippocampal tissues (pCREB): increase in statistically significant sense
bodyweight (gain rate) [2]: increased in statistically significant sense
number of center entry [3]: increased in statistically significant sense
travel distance within the center zone [3]: increase in statistically significant sense
relative expression amount of BDNF in hippocampal tissues (BDNF and mBDNF): increase in statistically significant sense
relative expression amount of mBDNF in hippocampal tissues (BDNF and mBDNF): increase in statistically significant sense
